From patent US10336792B2, “Antimicrobial peptide dendrimers” (priority 2014, dated 2019)
≈ marks a conversion by molar mass, not a printed value. Read-outs that look alike come from different tables or passages of the source. Positions of bridges follow the written chain, without caps; N, C: chain ends. Non-standard residues stand in square brackets, D forms with d. Residues, ends and D or L forms follow the SMILES beside them. Groups on a side chain read outwards from the residue. Chains are numbered I, II in the order given. *: point of attachment. Decanoyl = CCCCCCCCCC(=O)*; Orn = NCCC[C@H](N)C(=O)O; Dab = NCC[C@H](N)C(=O)O

Columns and labels:
[1] = system: Staphylococcus aureus (COL, MRSA reference strain); assay type: cell-based; settings: COL, reference strain
Procedure: (§1) Antimicrobial activity was assayed against P. aeruginosa PA01 (WT), P. aeruginosa PT1482 (A-), PT1485 (A-B-), PT1149 (A-B-C-algC), PT331 (Z61) (LPS mutants), P. aeruginosa PEJ2.6, PEJ9.1, ZEM1.A, ZEM9.A (clinical isolates from Université de Genève/Centre Médical Universitaire), Burkholderia cenocepacia (B. ceno), Staphylococcus aureus (S. aureus, MRSA strain) and Acinetobacter baumannii (A. baum) (clinical isolates from Université de Genève/Centre Médical Universitaire). To determine the minimal inhibitory concentration (MIC), microdilution broth method was used. A colony of bacteria was grown in MH-medium overnight at 37° C. The samples were prepared as stock solutions of 8 mg mL^−1 in H2O, diluted to the beginning concentration of 32, 64, 128 or 256 μg/mL in 300 μL MH-medium, added to the first well of 96-well microtiterplate (TPP, untreated) and diluted serially by ½. The concentration of the bacteria was quantified by measuring absorbance at 600 nm and diluted to OD600=0.022 in MH-medium. The sample solutions (150 μL) were mixed with 4 μL diluted bacterial suspension with a final inoculation of about of 5×10^5 CFU. The plates were incubated at 37° C. until satisfactory growth (˜18 h). For each test, two columns of the plate were kept for sterility control (SC, broth only) and growth control (GC, broth with bacterial inoculums, no antibiotics). The minimal inhibitory concentration (MIC) was defined as the lowest concentration of the antimicrobial substance (peptide dendrimer) that inhibited visible growth of the tested bacteria with the unaided eye. For microbiological study Polymyxin was used as references.
(§2) Ten of the most promising compounds (FIG. 5) were tested for their efficiency against four clinical isolates of P. aeruginosa (ZEM9.A, ZEM1.A, PEJ2.6, PEJ9.1), one S. aureus (COL, MRSA reference strain) and one A. baumannii strain. For the experiments in Genève the peptide dendrimers and reference compounds (polymyxin) were dissolved in PBS and the assay was carried out in Müller-Hinton (MH) broth with a two-fold dilution.

[2] = system: Acinetobacter baumannii; assay type: cell-based
Procedure: as §1, §2

[3] = system: P. aeruginosa PA01 (WT); assay type: cell-based, Pseudomonas aeruginosa; settings: WT
Procedure: as §1

[4] = system: PAO1; assay type: cell-based, Pseudomonas aeruginosa; settings: PAO1
Procedure: as §1

[5] = system: P. aeruginosa PEJ2.6, PEJ9.1, ZEM1.A, ZEM9.A (clinical isolates); assay type: cell-based, Pseudomonas aeruginosa; settings: PEJ2.6, PEJ9.1, ZEM1.A, ZEM9.A (clinical isolates)
Procedure: as §1, §2

[6] = system: Escherichia coli (strain DH5α); assay type: cell-based
Procedure, shortened: (§3)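 Broth microdilution MIC in LB; overnight cultures diluted to OD600 0.001 and mixed 1:1 with ⅔-serially diluted samples (stock 1 mg mL^−1 in H2O), 37° C for 18-24 h. MTT (0.1%) added; MIC read by eye as lowest concentration inhibiting visible growth (yellow).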

[7] = system: Bacillus subtilis (strain BR151); assay type: cell-based
Procedure, shortened: as §3

[8] = system: Pseudomonas aeruginosa (strain PA01); test: microbe, parasite or virus in culture; assay type: cell-based
Procedure, shortened: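 P. aeruginosa PAO1 grown overnight in LB, diluted to OD600 0.001 and mixed with ⅔-step peptide dilutions, then incubated at 37 °C for 18–24 h. After MTT staining, the lowest concentration with no visible growth was read by eye as the MIC.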

[9] = system: human red blood cells (hRBC); test: Haemolysis assay, minimal haemolytic concentration (MHC); assay type: cell-based; settings: hRBC in PBS pH 7.4, 4 h, room temperature
Procedure: To determine the minimal haemolytic concentration (MHC) stock solutions of 8 mg/mL of the peptide dendrimers in H2O were prepared and 50 μL were diluted serially by ½ in 50 μL PBS (pH 7.4) in 96-well plate (Cornstar or Nunc, polystyrene, untreated). Human red blood cells (hRBC) were obtained by centrifuging 1.5 mL of whole blood from friendly donors at 3000 rpm for 15 minutes. Plasma was discarded and the pellet was re-suspended in a 15 mL falcon tube up to 5 mL of PBS. The washing was repeated three times and the remaining pellet was re-suspended in 10 mL of PBS at a final hRBC concentration of 5%. The hRBC suspension (50 μL) was added to each well and the plate was incubated at room temperature for 4 hours. Minimal haemolytic concentration (MHC) end points were determined by visual inspection of the wells after the incubation period. Controls on each plate included a blank medium control (50 μl PBS+50 μl of hRBC suspension) and a haemolytic activity control (mQ-deionized water 50 μL+50 μL hRBC suspension).
MIC (minimal inhibitory concentration) and MHC (minimal haemolytic concentration, determined on human red blood cells (hRBC)) values are given in μg/mL. When no detectable haemolytic activity was observed, the last measured concentration was used for calculation of the therapeutic index. TI (therapeutic index)=MHC (μg/ml)/geometric mean of MIC (μg/ml). Larger values indicate greater antimicrobial specificity.

[10] = system: male wistar rats; test: In-vivo toxicity study, single i.v. injection; design: species or system rat
Source text: 4-6 weeks old male wistar rats (weight range 200-500 g) were used in toxicity experiments. Rats were obtained from Zentrale Tierställe Bern (Department of Clinical Research from University of Bern) and housed 4 per cage. Each experimental group includes two rats. All procedures, care and handling of the animals were reviewed and approved by the Veterinärdienst of Kanton Bern, Schweiz and execute in collaboration with the group of Prof. Hugues Abriel from Department of Clinical Research from University of Bern.
Rats were anesthetized with 4% isoflurane and 1 L/min oxygen in an induction chamber. When the rats were sleeping they were transferred on a clinical drape and anesthetized with 1-2% isoflurane and 0.8 l/min oxygen via a mask. The tail was warmed up with warm water and disinfected with 70% ethanol. The intravenous (i.v.) injections into the tail vein included a single dose of the AMPD of 2 mg/kg rat in 500 μL PBS. Before injection each rat was weighted individually and the exact dosage was determined. All rats, including control groups with no injection and i.v. injection of 500 μL PBS, were monitored for their survival and behavior for two days.
The compounds MSt-112, a 3rd generation AMPD with KL motive, MSt-181 its D-enantiomer analogue, MSt-242, a the 3rd generation with RL motive, and MSt-114 with Tyr instead of Lys in the 3rd generation were used for in vivo experiments with male wistar rats to assess their toxicity. These compounds were selected due to their high potencies and high MHCs values, which are at least 10 times higher than their activities. Each compound (concentration of 2 mg/kg) was applied to two rats by intravenous injection into the tail vein to observe if the AMPDs are well tolerated or may cause adverse effects. The concentration used was approx. 5-10 times higher than the MICs. […] The behaviour of the rats was normal. […] Therefore it seems that rats tolerate AMPDs very well, without visible site effects or even casualties.

[11] = LB medium, serial 2/3 dilution, 37 °C, 18-24 h

CCCCCCCCCC(=O)NCCCC[C@H](NC(=O)[C@H](CC(C)C)NC(=O)[C@H](CCCCN)NC(=O)[C@H](CCCCNC(=O)[C@H](CC(C)C)NC(=O)[C@H](CCN)NC(=O)[C@H](CCCCNC(=O)[C@H](Cc1ccccc1)NC(=O)[C@@H](N)CCCN)NC(=O)[C@H](Cc1ccccc1)NC(=O)[C@@H](N)CCCN)NC(=O)[C@H](CC(C)C)NC(=O)[C@H](CCN)NC(=O)[C@H](CCCCNC(=O)[C@H](Cc1ccccc1)NC(=O)[C@@H](N)CCCN)NC(=O)[C@H](Cc1ccccc1)NC(=O)[C@@H](N)CCCN)C(N)=O [TNS-122, (OrnF)4(KDabL)2(KKLK-CO(CH2)8CH3] (I: H-[Orn]FK([Phe-Orn])[Dab]LKKLK(Decanoyl)-NH2 / II: H-[Orn]FK([Phe-Orn])[Dab]L; amide I:6-II:C; N-terminus assumed)
MIC S. aureus COL [1]: 8 to 16 µg/mL | MIC A. baumannii ATCC19606 [2]: 8 to 16 µg/mL | MIC (MH) [3]: 2 µg/mL (≈ 0.834 µM) | MIC PAO1 [3]: 4 (8) μg/mL | MIC (MH + 30% human serum) [4]: 8 µg/mL | MIC P. aeruginosa MDR clinical isolate PEJ2.6 [5]: 4 µg/mL (≈ 1.67 µM) | MIC P. aeruginosa MDR clinical isolate PEJ9.1 [5]: 32 µg/mL (≈ 13.3 µM) | MIC P. aeruginosa MDR clinical isolate ZEM1A [5]: 4 µg/mL (≈ 1.67 µM) | MIC P. aeruginosa MDR clinical isolate ZEM9A [5]: 8 µg/mL (≈ 3.34 µM)

(DabL)8(KDabW)4(KDabW)2(KDabL) [MSt-204]
MIC E. coli DH5α ([6]; LB medium): 2 µg/mL | MIC B. subtilis BR151 ([7]; LB medium): 2 µg/mL | MIC P. aeruginosa PAO1 [8, 11]: 3 µg/mL | MHC (minimal haemolytic concentration) [9]: 146 µg/mL

CC(C)C[C@H](NC(=O)[C@H](CCCNC(=N)N)NC(=O)[C@H](CCCCNC(=O)[C@H](CC(C)C)NC(=O)[C@H](CCCNC(=N)N)NC(=O)[C@H](CCCCNC(=O)[C@H](CC(C)C)NC(=O)[C@H](CCCNC(=N)N)NC(=O)[C@H](CCCCNC(=O)[C@H](CC(C)C)NC(=O)[C@@H](N)CCCNC(=N)N)NC(=O)[C@H](CC(C)C)NC(=O)[C@@H](N)CCCNC(=N)N)NC(=O)[C@H](CC(C)C)NC(=O)[C@H](CCCNC(=N)N)NC(=O)[C@H](CCCCNC(=O)[C@H](CC(C)C)NC(=O)[C@@H](N)CCCNC(=N)N)NC(=O)[C@H](CC(C)C)NC(=O)[C@@H](N)CCCNC(=N)N)NC(=O)[C@H](CC(C)C)NC(=O)[C@H](CCCNC(=N)N)NC(=O)[C@H](CCCCNC(=O)[C@H](CC(C)C)NC(=O)[C@H](CCCNC(=N)N)NC(=O)[C@H](CCCCNC(=O)[C@H](CC(C)C)NC(=O)[C@@H](N)CCCNC(=N)N)NC(=O)[C@H](CC(C)C)NC(=O)[C@@H](N)CCCNC(=N)N)NC(=O)[C@H](CC(C)C)NC(=O)[C@H](CCCNC(=N)N)NC(=O)[C@H](CCCCNC(=O)[C@H](CC(C)C)NC(=O)[C@@H](N)CCCNC(=N)N)NC(=O)[C@H](CC(C)C)NC(=O)[C@@H](N)CCCNC(=N)N)C(N)=O [MSt-242, (RL)8(KRL)4(KRL)2(KRL)] (I: H-RLK([Leu-Arg])RLKRLKRL-NH2 / II: H-RLK([Leu-Arg])RLKRL / III: H-RLK([Leu-Arg])RL / IV: H-RLK([Leu-Arg])RL; amide I:6-IV:C, I:9-II:C, II:6-III:C)
MIC E. coli DH5α ([6]; DH5α): 3 µg/mL (≈ 0.606 µM) | MIC B. subtilis BR151 ([7]; strain BR151): 11 µg/mL (≈ 2.22 µM) | MIC S. aureus (COL, MRSA reference strain) [1]: below 20 μg/mL | visible effects and behaviour after injection ([10]; 2 mg/kg single i.v. dose into tail vein, two rats): No visible effect | survival rate ([10]; 2 mg/kg single i.v. dose, monitored 2 days): 100% | MIC P. aeruginosa ZEM9.A [5]: > 20 µg/mL | MIC P. aeruginosa PAO1 ([8]; strain): 8 µg/mL (≈ 1.61 µM)

CC(C)C[C@H](NC(=O)[C@H](CCCCN)NC(=O)[C@H](CCCCNC(=O)[C@H](CC(C)C)NC(=O)[C@H](CCCCN)NC(=O)[C@H](CCCCNC(=O)[C@H](CC(C)C)NC(=O)[C@@H](N)CCCCN)NC(=O)[C@H](CC(C)C)NC(=O)[C@@H](N)CCCCN)NC(=O)[C@H](CC(C)C)NC(=O)[C@H](CCCCN)NC(=O)[C@H](CCCCNC(=O)[C@H](CC(C)C)NC(=O)[C@@H](N)CCCCN)NC(=O)[C@H](CC(C)C)NC(=O)[C@@H](N)CCCCN)C(N)=O [Compound G2KL] (I: H-KLK([Leu-Lys])KLKKL-NH2 / II: H-KLK([Leu-Lys])KL; amide I:6-II:C; N-terminus assumed)
MIC S. aureus COL [1]: >64 µg/mL | MIC A. baumannii ATCC19606 [2]: >64 µg/mL | MIC PAO1 [3]: >64 µg/mL | MIC P. aeruginosa MDR clinical isolate PEJ2.6 [5]: >64 µg/mL | MIC P. aeruginosa MDR clinical isolate PEJ9.1 [5]: >64 µg/mL | MIC P. aeruginosa MDR clinical isolate ZEM1A [5]: >64 µg/mL | MIC P. aeruginosa MDR clinical isolate ZEM9A [5]: >64 µg/mL

CC(C)C[C@H](NC(=O)[C@H](CCCCN)NC(=O)[C@H](CCCCNC(=O)[C@H](CC(C)C)NC(=O)[C@H](CCCCN)NC(=O)[C@H](CCCCNC(=O)[C@H](CC(C)C)NC(=O)[C@H](CCCCN)NC(=O)[C@@H](N)CCCCN)NC(=O)[C@H](CC(C)C)NC(=O)[C@H](CCCCN)NC(=O)[C@@H](N)CCCCN)NC(=O)[C@H](CC(C)C)NC(=O)[C@H](CCCCN)NC(=O)[C@H](CCCCNC(=O)[C@H](CC(C)C)NC(=O)[C@H](CCCCN)NC(=O)[C@@H](N)CCCCN)NC(=O)[C@H](CC(C)C)NC(=O)[C@H](CCCCN)NC(=O)[C@@H](N)CCCCN)C(N)=O [MSt-119, (KKL)4(KKL)2(KKL)] (I: H-KKLK([Leu-Lys-Lys])KLKKL-NH2 / II: H-KKLK([Leu-Lys-Lys])KL; amide I:7-II:C)
MIC B. subtilis BR151 ([7]; LB medium): 20 µg/mL (≈ 7.68 µM) | MIC P. aeruginosa PAO1 [8, 11]: 3 µg/mL (≈ 1.15 µM) | MHC (minimal haemolytic concentration) [9]: 677 µg/mL

(LA)8(KLK)4(KLA)2(KKL) [MSt-120]
MIC E. coli DH5α ([6]; LB medium): considerably less active | MIC P. aeruginosa PAO1 [8, 11]: 14 µg/mL | MHC (minimal haemolytic concentration) [9]: 584 µg/mL

(KLL)4(KKLL)2(KKLL) [MIS-02]
MIC B. subtilis BR151 ([7]; LB medium): 1 µg/mL | MIC P. aeruginosa PAO1 [8, 11]: 3 µg/mL | MHC (minimal haemolytic concentration) [9]: 15 µg/mL
